Measured values from patent US20220133688A1, “MACROCYCLIC LACTONE ANTHELMINTICS AGAINST NEMATODES” (Bayer Animal Health GmbH, priority 2019, published 2022).
Several values for one entry are separate records, joined by “and”; a condition that tells them apart may be missing. Equal values may be shown once. Read-outs that look alike come from different tables or passages of the source.

Legend:
[1] = test system: D. immitis Mf, Missouri isolate; experiment: Cell attachment assay (canine PMN or PBMC attachment to Mf), Missouri isolate; format: cell-based, Dirofilaria immitis
[2] = test system: D. immitis Mf, Georgia-2 isolate; experiment: Cell attachment assay (canine PMN or PBMC attachment to Mf), Georgia-2 isolate; format: cell-based, Dirofilaria immitis

SMILES	Percentage (±SEM) of Mf with cells attached ([1]; PBMC, 1 μM drug, Missouri Mf)	lowest drug concentration at which a statistically significant increase (p = <0.05) in cell attachment was observed compared to the no-drug control ([1]; PBMC, 40 h, Missouri Mf, 2-way ANOVA)	Percentage (±SEM) of Mf with cells attached ([1]; PMN, 1 μM drug, Missouri Mf)	lowest drug concentration at which a statistically significant increase (p = <0.05) in cell attachment was observed compared to the no-drug control ([1]; PMN, 24 h, Missouri Mf, 2-way ANOVA)	Percentage (±SEM) of Mf with cells attached ([2]; PBMC, 1 μM drug, Georgia-2 Mf)	lowest drug concentration at which a statistically significant increase (p = <0.05) in cell attachment was observed compared to the no-drug control ([2]; PBMC, 40 h, Georgia-2 Mf, 2-way ANOVA)	Percentage (±SEM) of Mf with cells attached ([2]; PMN, 1 μM drug, Georgia-2 Mf)	lowest drug concentration at which a statistically significant increase (p = <0.05) in cell attachment was observed compared to the no-drug control ([2]; PMN, 24 h, Georgia-2 Mf, 2-way ANOVA)	Percentage (±SEM) of Mf with cells attached [1]	lowest drug concentration at which a statistically significant increase (p = <0.05) in cell attachment was observed compared to the no-drug control [1]	Percentage (±SEM) of Mf with cells attached [2]	lowest drug concentration at which a statistically significant increase (p = <0.05) in cell attachment was observed compared to the no-drug control [2]
CO/N=C1\C[C@]2(C[C@@H]3C[C@@H](C/C=C(\C)C[C@@H](C)/C=C/C=C4\CO[C@@H]5[C@H](O)C(C)=C[C@@H](C(=O)O3)[C@]45O)O2)O[C@H](/C(C)=C/C(C)C)[C@H]1C [MOX, moxidectin]	63 ± 5%	1 nM	65 ± 5%	3 nM	63 ± 5%	1 nM	54 ± 6%	3 nM	–	–	–	–
CC[C@H](C)[C@H]1O[C@]2(CC[C@@H]1C)C[C@@H]1C[C@@H](C/C=C(\C)[C@@H](O[C@H]3C[C@H](OC)[C@@H](O[C@H]4C[C@H](OC)[C@@H](O)[C@H](C)O4)[C@H](C)O3)[C@@H](C)/C=C/C=C3\CO[C@@H]4[C@H](O)C(C)=C[C@@H](C(=O)O1)[C@]34O)O2 [IVM, ivermectin]	–	–	–	–	–	–	–	–	48 ± 6% and 60 ± 3%	3 nM	41 ± 6% and 71 ± 5%	1 nM
